Data reported in BindingDB's records for doi:10.1021/jm010988n (University of Regensburg, 2002).
pIC50: −log10 of the molar value.

Molecular target: Platelet-derived growth factor receptor (Mus musculus)
Experiment: The cells were stimulated with PDGF (100 ng/mL) for 10 min at room temperature. Then the cell lysates were analyzed by SDS-PAGE and immunoblotting with anti-phosphotyrosine antibodies. Quantification of IC50 values was based on the intensity of the signal for autophosphorylated PDGF receptor. Titration was done using four to ei

Row | pIC50 | pIC50 (pH 7.4) | SMILES
1 | 5.24 | – | O=C(c1cc2ccccc2[nH]1)c1cc2cc(OC(=O)C3CCC3)ccc2[nH]1 [2-(1H-indol-2-ylcarbonyl)-1H-indol-5-yl cyclobutanecarboxylate]
2 | – | 4.70 | O=C(c1cc2ccccc2[nH]1)c1cc2cc(OCc3ccccc3)ccc2[nH]1 [5-(benzyloxy)-2-(1H-indol-2-ylcarbonyl)-1H-indole]
3 | – | 4.70 | COc1ccc2[nH]c(C(=O)c3cc4cc(OC)ccc4[nH]3)cc2c1 [Bis(5-methoxy-1H-2-indolyl)methanone]

Row | SMILES | pIC50 | pIC50 (pH 7.4)
4 | O=C(c1cc2ccccc2[nH]1)c1cc2cc(OCCCCI)ccc2[nH]1 [5-(4-Iodobutoxy-1H-2-indolyl)(1H-2-indolyl)methanone] | – | 4.90
